The source of these data is PubChem BioAssay AID256 (DTP/NCI, 2004).

Values joined by “and” are separate entries in the source; they are usually repeats but may differ in a detail not shown here. Equal entries are not always repeated. Inconclusive results and toxic doses are left out.

The subject of the assay is CD2F1 mice, L1210 leukemia ip, survival T/C. Put plainly: NCI In Vivo Anticancer Drug Screen. Data for tumor model L1210 Leukemia (intraperitoneal) in CD2F1 (CDF1) mice. To be noted: higher = longer survival. The gist of the method:
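Transplantable tumor in mice; compound-treated vs vehicle-treated groups. Read-out = treated/control ratio of the measured endpoint.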

[1] abbreviates: endpoint: mean survival time, dose: 100.0 mg/kg/injection, schedule: Q01DX009 (ip), vehicle: saline with Tween-80.
The mark [2] stands for this setting: endpoint: mean survival time, dose: 100.0 mg/kg/injection, schedule: Q04DX003 (ip), vehicle: saline with Tween-80.
[3] abbreviates: endpoint: mean survival time, dose: 200.0 mg/kg/injection, schedule: Q01DX009 (ip), vehicle: saline with Tween-80.
[4] abbreviates: endpoint: mean survival time, dose: 200.0 mg/kg/injection, schedule: Q04DX003 (ip), vehicle: saline with Tween-80.
The mark [5] stands for this setting: endpoint: mean survival time, dose: 400.0 mg/kg/injection, schedule: Q04DX003 (ip), vehicle: saline with Tween-80.
[6] abbreviates: endpoint: mean survival time, dose: 100.0 mg/kg/injection, schedule: Q04DX002 (ip), vehicle: saline with Tween-80.
Setting [7] is: endpoint: mean survival time, dose: 200.0 mg/kg/injection, schedule: Q04DX002 (ip), vehicle: saline with Tween-80.
[8] abbreviates: endpoint: mean survival time, dose: 400.0 mg/kg/injection, schedule: Q04DX002 (ip), vehicle: saline with Tween-80.
Where [9] appears, read: endpoint: mean survival time, dose: 400.0 mg/kg/injection, schedule: Q01DX009 (ip), vehicle: saline with Tween-80.
The mark [10] stands for this setting: endpoint: mean survival time, dose: 100.0 mg/kg/injection, schedule: Q04DX003 (ip), vehicle: saline.
Where [11] appears, read: endpoint: mean survival time, dose: 200.0 mg/kg/injection, schedule: Q04DX003 (ip), vehicle: saline.
Setting [12] is: endpoint: mean survival time, dose: 400.0 mg/kg/injection, schedule: Q04DX003 (ip), vehicle: saline.
Setting [13] is: endpoint: mean survival time, dose: 100.0 mg/kg/injection, schedule: Q01DX001 (ip), vehicle: saline with Tween-80.
The mark [14] stands for this setting: endpoint: mean survival time, dose: 200.0 mg/kg/injection, schedule: Q01DX001 (ip), vehicle: saline with Tween-80.
Where [15] appears, read: endpoint: mean survival time, dose: 400.0 mg/kg/injection, schedule: Q01DX001 (ip), vehicle: saline with Tween-80.
[16] abbreviates: endpoint: mean survival time, dose: 50.0 mg/kg/injection, schedule: Q01DX009 (ip), vehicle: saline.
[17] abbreviates: endpoint: mean survival time, dose: 100.0 mg/kg/injection, schedule: Q01DX009 (ip), vehicle: saline.
[18] abbreviates: endpoint: mean survival time, dose: 100.0 mg/kg/injection, schedule: Q01DX001 (ip), vehicle: saline.
Setting [19] is: endpoint: mean survival time, dose: 200.0 mg/kg/injection, schedule: Q01DX001 (ip), vehicle: saline.

`O=C(O)C(O)C(O)C(O)C(O)C(=O)O.[NH-]C1CCCCC1[NH-].[Pt+2]` (stereo not drawn): the T/C runs as follows: (endpoint: median survival time, dose: 6.25 mg/kg/injection, schedule: Q04DX003 (ip), vehicle: saline) 116 % of control and 112 % of control; (endpoint: median survival time, dose: 12.5 mg/kg/injection, schedule: Q04DX003 (ip), vehicle: saline) 121 % of control and 123 % of control; (endpoint: median survival time, dose: 25.0 mg/kg/injection, schedule: Q04DX003 (ip), vehicle: saline) 123 % of control; (endpoint: median survival time, dose: 50.0 mg/kg/injection, schedule: Q04DX003 (ip), vehicle: saline) 151 % of control and 152 % of control; (endpoint: median survival time, dose: 100.0 mg/kg/injection, schedule: Q04DX003 (ip), vehicle: saline) 167 % of control and 187 % of control.

Regarding `O=C(O)c1cccc(S(=O)(=O)N(CCO)CCO)c1`, the T/C reads like this: under setting [1], 94 % of control; under setting [2], 98 % of control; under setting [3], 94 % of control; under setting [4], 94 % of control; under setting [5], 94 % of control.

With `CC1C(=O)OC2C1CCC1(C)C(O)OC(=O)C3(O)OC231` (stereo not drawn), the T/C is, setting by setting: under setting [6], 104 % of control; under setting [7], 96 % of control; under setting [8], 96 % of control.

For `ClCCCCOCCCCCl`, the T/C is 95 % of control under setting [1]; 97 % of control under setting [2]; 95 % of control under setting [3]; 95 % of control under setting [4]; 117 % of control under setting [9]; 97 % of control under setting [5].

For `O=[N+]([O-])c1ccc(N/N=C\c2ccc3ccccc3n2)cc1`, the T/C is, setting by setting: under setting [10], 106 % of control; under setting [11], 109 % of control; under setting [12], 101 % of control.

For the compound `CC1(Br)OC(=O)CC1Br` (stereo not drawn), the T/C under setting [6] is 106 % of control and the T/C under setting [7] was 91 % of control.

With `O=C1CCC([N+](=O)[O-])C(c2cccc3ccccc23)N1` (stereo not drawn), the T/C reads like this: under setting [13], 94 % of control; under setting [14], 94 % of control; under setting [15], 97 % of control.

Consider `CCCc1c(C)[nH]c2ccc(C)cc12`, for which the T/C is 102 % of control under setting [16], 104 % of control under setting [17], 101 % of control under setting [2] and 86 % of control under setting [4].

Turning to `CSC(=S)N/N=C(\C)c1ccccn1`, the T/C runs as follows: (endpoint: mean survival time, dose: 25.0 mg/kg/injection, schedule: Q04DX003 (ip), vehicle: saline with Tween-80) 98 % of control; (endpoint: mean survival time, dose: 50.0 mg/kg/injection, schedule: Q04DX003 (ip), vehicle: saline with Tween-80) 107 % of control; under setting [2], 110 % of control.

As to `CC(C)(C)OC(=O)NC(CCCCNC(=O)OCc1ccccc1)C(=O)Oc1ccc([N+](=O)[O-])cc1` (stereo not drawn), the T/C by setting is: under setting [2], 91 % of control; under setting [4], 86 % of control; under setting [5], 86 % of control.

`CC(C)(C)/C=C\C=C\C(C)(C)C`: the T/C by setting is: (endpoint: mean survival time, dose: 50.0 mg/kg/injection, schedule: Q01DX009 (ip), vehicle: saline with Tween-80) 100 % of control; under setting [1], 103 % of control; under setting [3], 92 % of control.

`C=CCC(C(=O)OC)(C(=O)OC)c1ccc(OC)c(OC)c1`: the T/C reads like this: (endpoint: mean survival time, dose: 75.0 mg/kg/injection, schedule: Q01DX001 (ip), vehicle: saline) 100 % of control; (endpoint: mean survival time, dose: 150.0 mg/kg/injection, schedule: Q01DX001 (ip), vehicle: saline) 96 % of control; (endpoint: mean survival time, dose: 300.0 mg/kg/injection, schedule: Q01DX001 (ip), vehicle: saline) 98 % of control.

Regarding `CN(C)/C=N/c1c(CO)c(-c2ccccc2)nn1-c1ccccc1`, the T/C under setting [2] was 101 % of control, the T/C under setting [4] was 95 % of control and the T/C under setting [5] was 95 % of control.

Turning to `c1ccc([Si]2(c3ccccc3)c3ccccc3-c3ccccc32)cc1`, the T/C reads like this: under setting [1], 94 % of control; under setting [3], 99 % of control.

As to `CNC(=S)SC`, the T/C (endpoint: mean survival time, dose: 50.0 mg/kg/injection, schedule: Q01DX001 (ip), vehicle: saline) is 98 % of control; the T/C under setting [18] was 102 % of control; the T/C under setting [19] was 104 % of control.

For `Cc1ccc(S(=O)(=O)O)cc1.Cc1ccc(S(=O)(=O)O)cc1.[NH-]C1CCCCC1[NH-].[Pt+2]`, the T/C (endpoint: mean survival time, dose: 2.0 mg/kg/injection, schedule: Q04DX003 (ip), vehicle: other) was 177 % of control; the T/C (endpoint: mean survival time, dose: 4.0 mg/kg/injection, schedule: Q04DX003 (ip), vehicle: other) is 255 % of control; the T/C (endpoint: mean survival time, dose: 8.0 mg/kg/injection, schedule: Q04DX003 (ip), vehicle: other) was 183 % of control.

For `CN=Cc1ccccc1`, the T/C (endpoint: mean survival time, dose: 25.0 mg/kg/injection, schedule: Q01DX009 (ip), vehicle: saline) was 97 % of control; the T/C under setting [16] was 97 % of control; the T/C under setting [17] was 100 % of control.

For the compound `CC(=O)Nc1ccc(OC(=O)Nc2cccc(F)c2)cc1`, the T/C runs as follows: under setting [1], 91 % of control; under setting [3], 95 % of control; under setting [9], 91 % of control.

Turning to `O=C(O)c1[nH]c(=O)[nH]c(=O)c1F`, the T/C by setting is: (endpoint: mean survival time, dose: 1.25 mg/kg/injection, schedule: Q01DX009 (ip), vehicle: saline) 101 % of control and 109 % of control; (endpoint: mean survival time, dose: 2.5 mg/kg/injection, schedule: Q01DX007 (ip), vehicle: Klucel (hydroxypropylcellulose) (HPC)) 119 % of control; (endpoint: mean survival time, dose: 2.5 mg/kg/injection, schedule: Q01DX009 (ip), vehicle: saline) 123 % of control; (endpoint: mean survival time, dose: 2.5 mg/kg/injection, schedule: Q03DX003 (ip), vehicle: Klucel (hydroxypropylcellulose) (HPC)) 110 % of control; (endpoint: mean survival time, dose: 2.5 mg/kg/injection, schedule: Q04DX003 (ip), vehicle: Klucel (hydroxypropylcellulose) (HPC)) 103 % of control; (endpoint: mean survival time, dose: 5.0 mg/kg/injection, schedule: Q01DX007 (ip), vehicle: Klucel (hydroxypropylcellulose) (HPC)) 165 % of control. For the same compound, the T/C (endpoint: mean survival time, dose: 5.0 mg/kg/injection, schedule: Q01DX009 (ip), vehicle: saline) is 168 % of control; the T/C (endpoint: mean survival time, dose: 5.0 mg/kg/injection, schedule: Q03DX003 (ip), vehicle: Klucel (hydroxypropylcellulose) (HPC)) is 122 % of control; the T/C (endpoint: mean survival time, dose: 5.0 mg/kg/injection, schedule: Q04DX003 (ip), vehicle: Klucel (hydroxypropylcellulose) (HPC)) is 112 % of control; the T/C (endpoint: mean survival time, dose: 10.0 mg/kg/injection, schedule: Q01DX007 (ip), vehicle: Klucel (hydroxypropylcellulose) (HPC)) was 119 % of control; the T/C (endpoint: mean survival time, dose: 10.0 mg/kg/injection, schedule: Q04DX003 (ip), vehicle: Klucel (hydroxypropylcellulose) (HPC)) is 117 % of control.

Take `OC12Cc3ccccc3C1=NN(c1ccccc1)C2c1ccccc1` (stereo not drawn): the T/C is 91 % of control under setting [1] and 86 % of control under setting [9].

With `COCc1ccc(C(=O)O)cc1`, the T/C under setting [13] is 105 % of control, the T/C under setting [14] was 96 % of control and the T/C under setting [15] was 97 % of control.

Turning to `N#CC(/C=C/c1ccccc1)Nc1ccccc1C(N)=O` (stereo not drawn), the T/C is 97 % of control (endpoint: mean survival time, dose: 100.0 mg/kg/injection, schedule: Q04DX003 (ip), vehicle: saline sonified); 97 % of control (endpoint: mean survival time, dose: 200.0 mg/kg/injection, schedule: Q04DX003 (ip), vehicle: saline sonified); 97 % of control (endpoint: mean survival time, dose: 400.0 mg/kg/injection, schedule: Q04DX003 (ip), vehicle: saline sonified).

As to `CCCOC(=O)Nc1ccccn1`, the T/C is, setting by setting: under setting [6], 108 % of control; under setting [7], 108 % of control; under setting [8], 97 % of control.

For the compound `O=c1oc(-c2ccccc2Cl)nc2cc(Cl)ccc12`, the T/C runs as follows: under setting [2], 101 % of control; under setting [4], 94 % of control.

Regarding `OCCN1CCNC1=S`, the T/C is, setting by setting: under setting [17], 97 % of control; under setting [10], 97 % of control; (endpoint: mean survival time, dose: 200.0 mg/kg/injection, schedule: Q01DX009 (ip), vehicle: saline) 97 % of control; under setting [11], 92 % of control; (endpoint: mean survival time, dose: 400.0 mg/kg/injection, schedule: Q01DX009 (ip), vehicle: saline) 102 % of control; under setting [12], 98 % of control.

`CC(=O)Oc1cccc2c1C(=O)c1c(OC(C)=O)cc(C)cc1C2=O`: the T/C under setting [18] is 101 % of control; the T/C under setting [19] is 101 % of control; the T/C (endpoint: mean survival time, dose: 400.0 mg/kg/injection, schedule: Q01DX001 (ip), vehicle: saline) was 98 % of control.
